Source: ChEMBL document CHEMBL1154899, “Synthesis and biological evaluation of caffeic acid 3,4-dihydroxyphenethyl ester” (J Nat Prod, 2010)

Experiments:
Assay type in all cases: functional
HT-29 [1] = test: Antiproliferative activity against human HT-29 cells assessed as cell growth at 50 uM by SRB assay; settings: read-out: Activity
Malme-3M = test: Antiproliferative activity against human MALME-3M cells assessed as cell growth at 50 uM by SRB assay; settings: read-out: Activity
HT-29 [2] = test: Antiproliferative activity against human HT-29 cells assessed as cell growth at 5 uM by SRB assay; settings: read-out: Activity
SF-539 = test: Antiproliferative activity against human SF539 cells assessed as cell growth at 5 uM by SRB assay; settings: read-out: Activity
OVCAR-8 = test: Antiproliferative activity against human OVCAR8 cells assessed as cell growth at 5 uM by SRB assay; settings: read-out: Activity
CAKI-1 [3] = test: Antiproliferative activity against human Caki1 cells assessed as cell growth at 5 uM by SRB assay; settings: read-out: Activity
NCI/ADR-RES [4] = test: Antiproliferative activity against human NCI/ADR-RES cells assessed as cell growth at 5 uM by SRB assay; settings: read-out: Activity
T47D = test: Antiproliferative activity against human T47D cells assessed as cell growth at 500 uM by SRB assay; settings: read-out: Activity
K562 = test: Antiproliferative activity against human K562 cells assessed as cell growth at 50 uM by SRB assay; settings: read-out: Activity
SK-MEL-5 = test: Antiproliferative activity against human SK-MEL-5 cells assessed as cell growth at 5 mM by SRB assay; settings: read-out: Activity
[5] = Antiproliferative activity against human Hs 578T cells assessed as cell growth at […] by SRB assay; settings: read-out: Activity
MDA-MB-435 [6] = test: Antiproliferative activity against human MDA-MB-435 cells assessed as cell growth at 5 mM by SRB assay; settings: read-out: Activity
HT-29 [7] = test: Antiproliferative activity against human HT-29 cells assessed as cell growth at […] by SRB assay; settings: read-out: Activity
HCT-116 = test: Antiproliferative activity against human HCT116 cells assessed as cell growth at 500 uM by SRB assay; settings: read-out: Activity
CAKI-1 [8] = test: Antiproliferative activity against human Caki1 cells by SRB assay
UACC-257 = test: Antiproliferative activity against human UACC257 cells assessed as cell growth at 0.5 uM by SRB assay; settings: read-out: Activity
UACC-62 = test: Antiproliferative activity against human UACC62 cells assessed as cell growth at 0.5 uM by SRB assay; settings: read-out: Activity
SN12C = test: Antiproliferative activity against human SN12C cells assessed as cell growth at 0.5 uM by SRB assay; settings: read-out: Activity
NCI/ADR-RES [9] = test: Antiproliferative activity against human NCI/ADR-RES cells assessed as cell growth at 0.5 uM by SRB assay; settings: read-out: Activity
MDA-MB-435 [10] = test: Antiproliferative activity against human MDA-MB-435 cells assessed as cell growth at 0.5 uM by SRB assay; settings: read-out: Activity

O=C(/C=C/c1ccc(O)c(O)c1)OCCc1ccc(O)c(O)c1
growth at 50 µM (HT-29 [1]): 98% | growth at 50 µM (Malme-3M): 102% | growth at 5 µM (HT-29 [2]): 103% | growth at 5 µM (SF-539): 81% | growth at 5 µM (OVCAR-8): 79% | growth at 5 µM (CAKI-1 [3]): 83% | growth at 5 µM (NCI/ADR-RES [4]): 98% | growth at 500 µM (T47D): 71% | growth at 50 µM (K562): 90% | growth at 5000 µM (SK-MEL-5): -1% | growth [5]: 9% | growth at 5000 µM (MDA-MB-435 [6]): 17% | growth (HT-29 [7]): 34% | growth at 500 µM (HCT-116): 65% | GI50 (CAKI-1 [8]; read-out: GI50): 10.6 µM | CC50 (CAKI-1 [8]; read-out: LC50 (the source's name)): > 50 µM | TGI (CAKI-1 [8]; read-out: TGI): > 50 µM | GI50 (CAKI-1 [8]; read-out: pGI50 (converted)): 10.5 µM | CC50 (CAKI-1 [8]; read-out: pLC50 (the source's name) (converted)): > 50.1 µM | TGI (CAKI-1 [8]; read-out: pTGI): > 50.1 µM | growth at 0.5 µM (UACC-257): 93% | growth at 0.5 µM (UACC-62): 91% | growth at 0.5 µM (SN12C): 74% | growth at 0.5 µM (NCI/ADR-RES [9]): 97% | growth at 0.5 µM (MDA-MB-435 [10]): 99%
